Experimental data: patent US20070037790A1, “Bicyclo-pyrazole derivatives active as kinase inhibitors, process for their preparation and pharmaceutical compositions comprising them” (priority 2003, published 2007)

molecular target: Cdk2/Cyclin A (Homo sapiens, UniProt P24941); experiment: Inhibition assay of Cdk2/Cyclin A activity (SPA); format: biochemical; settings: 10 μM ATP, biotinylated histone H1 substrate, read-out: IC50 against Cdk2/Cyclin A
Method: The inhibiting activity of putative Cdk/Cyclin inhibitors and the potency of selected compounds is determined through a method of assay based on the use of the SPA technology (Amersham Pharmacia Biotech).
The assay consists of the transfer of radioactivity labelled phosphate moiety by the kinase to a biotinylated substrate. The resulting 33P-labelled biotinylated product is allowed to bind to streptavidin-coated SPA beads (biotin capacity 130 pmol/mg), and light emitted is measured in a scintillation counter.
Inhibition Assay of Cdk2/Cyclin A Activity
Kinase reaction: 4 μM in house biotinylated histone H1 (Sigma # H-5505) substrate, 10 μM ATP (0.1 microCi P^33γ-ATP), 4.2 ng Cdk2/Cyclin A complex, inhibitor in a final volume of 30 μl buffer (TRIS HCl 10 mM pH 7.5, MgCl2 10 mM, DTT 7.5 mM+0.2 mg/ml BSA) were added to each well of a 96 U bottom. After 30 min at r.t. incubation, reaction was stopped by 100 μl PBS+32 mM EDTA+0.1% Triton X-100+500 μM ATP, containing 1 mg SPA beads. Then a volume of 110 μl is transferred to Optiplate. After 20 min. incubation for substrate capture, 100 μl 5M CsCl were added to allow statification of beads to the top of the plate and let stand 4 hours before radioactivity counting in the Top-Count instrument
IC50 determination: inhibitors were tested at different concentrations ranging from 0.0015 to 10 μM. Experimental data were analyzed by the computer program GraphPad Prizm using the four parameter logistic equation: y=bottom+(top−bottom)/(1+10ˆ((log IC50−x)*slope)) where x is the logarithm of the inhibitor concentration, y is the response; y starts at bottom and goes to top with a sigmoid shape. Ki Calculation: Experimental method: Reaction was carried out in buffer (10 mM Tris, pH 7.5, 10 mM MgCl2, 0.2 mg/ml BSA, 7.5 mM DTI) containing 3.7 nM enzyme, histone and ATP (constant ratio of cold/labeled ATP 1/3000). Reaction was stopped with EDTA and the substrate captured on phosphomembrane (Multiscreen 96 well plates from Millipore). After extensive washing, the multiscreen plates are read on a top counter. Control (time zero) for each ATP and histone concentrations was measured. Experimental design: Reaction velocities are measured at different four ATP, substrate (histone) and inhibitor concentrations. An […] concentration matrix was designed around the respective ATP and substrate Km values, and the inhibitor IC50 values (0.3, 1, 3, 9 fold the Km or IC50 values). A preliminary time course experiment in the absence of inhibitor and at the different ATP and substrate concentrations allow the selection of a single endpoint time (10 min) in the linear range of the reaction for the Ki determination experiment. Kinetic parameter estimates: Kinetic parameters were estimated by simultaneous nonlinear least-square regression using [Eq.1] […]

Compound | IC50 [µM]
CC(C)(C)c1ccc(C(=O)Nc2[nH]nc3c2CN(C(=O)c2ccncc2)C3)cc1 [N-{5-(pyridine-4-carbonyl)-4,6-dihydropyrrolo[3,4-c]pyrazol-3-yl}-4-tertbutylbenzamide] | > 10
CC(C)(C)c1ccc(C(=O)Nc2[nH]nc3c2CN(C(=O)c2cnccn2)C3)cc1 [N-{5-(pyrazine-2-carbonyl)-4,6-dihydropyrrolo[3,4-c]pyrazol-3-yl}-4-tertbutylbenzamide] | 2.5
3-(4-tert-butyl-benzamido)-5-[(2-propylamino)pyrimidin-4-yl]-4,6-dihydropyrrolo[3,4-c]pyrazole | 0.22
CC(C)(C)c1ccc(C(=O)Nc2n[nH]c3c2CN(c2ccnc(N4CCOCC4)n2)C3)cc1 [3-(4-tert-butyl-benzamido)-5-[2-(N-morpholino)pyrimidin-4-yl]-4,6-dihydropyrrolo[3,4-c]pyrazole] | 0.34
